# Measurements taken from patent US20180221874A1, “FLUIDIC DEVICES INC[…] TISSUE AND METHODS OF USE” (President and Fellows of Harvard College, priority 2015, published 2018).
# “Also recorded” adds a separate entry of the source.
# System: functional muscle tissue of human cardiac tissue
# Assay: Cardiac field potentials of functional muscle tissue measured with flexible electrode array
# Type: cell-based
# Conditions: escalating doses of isoproterenol; cardiac field potentials detected by microelectrode array; FIG. 27, 28
# Excerpt: A cell seeding well attached to a second portion of a fluidic device including a gelatin flexible substrate with a micropatterned top surface on a COC base was used to culture a functional muscle tissue of human cardiac tissue on the flexible substrate and to separately evaluate the functional muscle tissue prior to assembling the rest of the fluidic device. FIG. 26 is an image of the cell seeding well 400 attached to the second portion 192 of the fluidic device. The top of the cell seeding well 400 was wrapped in a gas permeable membrane. […] The cultured functional muscle tissue on the flexible substrate was exposed to escalating doses of isoproterenol, a beta-adrenergic agonist, and resulting cardiac field potentials were measured using the flexible electrode array. FIG. 27 is a graph of the measured cardiac field potentials 610, 620, […], 640, 650, 660, 670 as a function of time detected by the microelectrode array for various concentrations of isoproterenol. FIG. 28 is a graph of the measured QT interval shortening as a function of the dose of isoproterenol. […] Thus, the modular nature of the fluidic device enabled the flexible substrate on the second portion of the device to be easily seeded and cultured to form the functional muscle tissue, and enabled the functional muscle tissue to be evaluated prior to assembly of the full fluidic device.
structure (smiles),measurement,value
CC(C)NCC(O)c1ccc(O)c(O)c1 (stereo not shown) [isoproterenol],QT interval as a function of isoproterenol dose,shortening QT interval; also recorded: QT shortening with increased doses
